# Data as given in ChEMBL document CHEMBL1201862, “PubChem BioAssay data set” (2004).
# The source made the active and inactive calls.
# Experiments:
# [1] = DRD fibroblast viability loss – cell-based, non-viral oncogenic, luminescence, dose response (AID 1934); assay type: functional; conditions: Homo sapiens
# BJ [2] = test: BJ-TERT fibroblast viability loss – cell-based, RAS-independent, luminescence, dose response (AID 1933); assay type: functional; conditions: Homo sapiens
# BJ [3] = test: growth inhibition of engineered Ras-driven BJ cells – cell-based, alamar blue fluorescence, cherrypicked samples, dose response (AID 2631); assay type: functional; conditions: Homo sapiens;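 also: confirmatory dose-response assay in RAS-dependent BJ fibroblasts engineered with TERT, LT and ST, with cytotoxicity read by fluorescence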
# BJ [4] = test: BJ-TERT-LT-ST fibroblast viability loss – cell-based, RAS-independent, luminescence, dose response (AID 1935); assay type: functional; conditions: Homo sapiens;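 also: BJ fibroblasts immortalized with TERT plus LT and ST oncogenes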
# BJ [5] = test: cells; assay type: functional, cell-based; conditions: Homo sapiens
# [6] = HEK-293T viability loss after treatment – luminescence, T-cell screen hits, cytotoxicity control for TCR NF-kB inhibitor project, dose response (AID 489026); assay type: functional, cell-based;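 also: cells exposed to compound about 14 hours before the viability readout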
# [7] = fluconazole-exposed Candida albicans growth modulators – fluorescence, retest, confirmation (AID 2467); assay type: functional, cell-based
# [8] = NIH-3T3 fibroblast cytotoxicity, dose response, cytotoxicity control, cell-based, fluorescence, Alamar Blue, secondary assay (AID 2327); assay type: functional;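 also: NIH-3T3 mouse fibroblasts cultured with fluconazole at 8 µg/mL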
# [9] = molecular target: T1, Carboxy-terminal domain RNA polymerase II polypeptide A small phosphatase 1 (Homo sapiens, UniProt Q9GZU7); test: CTDSP1 inhibitors, concentration-response, biochemical, absorbance readout, ultra-high-throughput screen actives (AID 540297); assay type: functional
# T1 sequence (Q9GZU7 whole entry): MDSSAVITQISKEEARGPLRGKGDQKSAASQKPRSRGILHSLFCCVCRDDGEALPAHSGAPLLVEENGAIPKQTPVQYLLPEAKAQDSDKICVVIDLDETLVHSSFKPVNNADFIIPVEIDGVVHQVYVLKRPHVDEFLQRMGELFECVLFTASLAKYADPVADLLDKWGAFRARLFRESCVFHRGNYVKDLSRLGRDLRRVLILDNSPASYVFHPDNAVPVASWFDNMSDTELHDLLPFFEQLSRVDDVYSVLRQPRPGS
# [10] = molecular target: Luciferin 4-monooxygenase (Photinus pyralis, UniProt P08659); test: inhibition of purified Photinus pyralis luciferase – biochemical, luminescence, dose response (AID 1891)
# [11] = microbe, parasite or virus in culture; assay type: functional; conditions: Mycobacterium tuberculosis
# Melanocortin receptor 4 = Melanocortin receptor 4 (Homo sapiens, UniProt P32245); assay type: functional, cell-based;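 also: Cell-based assay with luminescence read-out, confirmatory dose-response testing for agonist activity of biased ligands at MC4R; human U2OS cells with tagged receptor and beta-arrestin; potency of agonists that increase receptor coupling to beta-arrestin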
# [12] = Luminescence Cell-Based Dose Confirmation HTS to Identify Inhibitors of Platelet Dense Granule Release. [Related pubchem assays: 1663 (Primary HTS), 1678 (Summary of Project)]; assay type: functional
# [13] = reduction of Shn3 3'UTR-driven luciferase in osteoblasts – cell-based, Clone20 osteoblasts, firefly luciferase, cherry-picked, dose response (AID 624132); assay type: functional;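 also: firefly luciferase luminescence from reporter carrying the Shn3 3'UTR in osteoblasts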
# [14] = loss of viability in HepG2 cells – cell-based, CellTiter-Glo, cherry-picked, cytotoxicity control for Shn3 inhibitor project, dose response (AID 624134); assay type: functional
# [15] = Luminescence Cell-Based Dose Retest to Confirm Inhibitors of Cancer Stem Cells. [Related pubchem assays (depositor defined):AID2717, AID2721]; assay type: functional; conditions: Homo sapiens
# Beta-galactosidase = Beta-galactosidase (Escherichia coli, UniProt Q8VNN2); test: detection-enzyme interference by beta-gal modulators – biochemical, E. coli enzyme, set 3, artefact control for CCR6 antagonist project, dose response (AID 504712); assay type: functional
# Streptococcus = test: GAS UMAA2166 growth inhibition – luminescence, BacTiterGlo, counter-screen for streptokinase expression inhibitor project, dose response (AID 1915); assay type: functional, organism-based;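 also: potency for reduction of bacterial viability or growth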
# Vero = test: cells; assay type: functional; conditions: Chlorocebus sabaeus
# [16] = tested on: Streptococcus sp. 'group A'; test: Streptococcus pyogenes SK(-)GAS viability under kanamycin – luminescence, BacTiterGlo, confirmation, counter-screen for streptokinase expression inhibitor project, dose response (AID 1900); assay type: functional, organism-based
# Streptokinase A = molecular target: T2, Streptokinase A (Streptococcus pyogenes serotype M1, UniProt P10520); test: viability-normalized secreted streptokinase activity reduction – plasminogen activation absorbance, OD405, dose response (AID 1914); assay type: functional, Streptococcus pyogenes M1 GAS;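 also: secreted streptokinase activity via plasminogen activation per viability signal from cell pellet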
# T2 sequence (P10520 whole entry): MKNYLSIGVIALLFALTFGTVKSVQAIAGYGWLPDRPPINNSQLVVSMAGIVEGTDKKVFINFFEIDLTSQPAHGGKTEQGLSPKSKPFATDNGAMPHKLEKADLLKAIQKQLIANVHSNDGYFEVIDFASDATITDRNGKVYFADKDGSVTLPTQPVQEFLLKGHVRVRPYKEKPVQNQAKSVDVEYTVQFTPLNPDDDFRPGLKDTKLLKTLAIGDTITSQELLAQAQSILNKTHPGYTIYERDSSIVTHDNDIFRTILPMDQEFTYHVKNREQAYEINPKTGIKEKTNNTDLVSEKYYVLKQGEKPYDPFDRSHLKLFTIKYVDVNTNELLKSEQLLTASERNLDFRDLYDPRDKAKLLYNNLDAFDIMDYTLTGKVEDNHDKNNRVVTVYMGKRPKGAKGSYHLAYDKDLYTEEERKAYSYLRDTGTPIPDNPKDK
# [17] = molecular target: T3, Short transient receptor potential channel 4 (Mus musculus, UniProt Q9QUQ5); test: calcium entry via TRPC4 opening agents – cell-based, HEK293 TRPC4/mu-opioid, Fluo-4 calcium, dose response (AID 434937); assay type: functional
# T3 sequence (Q9QUQ5 whole entry): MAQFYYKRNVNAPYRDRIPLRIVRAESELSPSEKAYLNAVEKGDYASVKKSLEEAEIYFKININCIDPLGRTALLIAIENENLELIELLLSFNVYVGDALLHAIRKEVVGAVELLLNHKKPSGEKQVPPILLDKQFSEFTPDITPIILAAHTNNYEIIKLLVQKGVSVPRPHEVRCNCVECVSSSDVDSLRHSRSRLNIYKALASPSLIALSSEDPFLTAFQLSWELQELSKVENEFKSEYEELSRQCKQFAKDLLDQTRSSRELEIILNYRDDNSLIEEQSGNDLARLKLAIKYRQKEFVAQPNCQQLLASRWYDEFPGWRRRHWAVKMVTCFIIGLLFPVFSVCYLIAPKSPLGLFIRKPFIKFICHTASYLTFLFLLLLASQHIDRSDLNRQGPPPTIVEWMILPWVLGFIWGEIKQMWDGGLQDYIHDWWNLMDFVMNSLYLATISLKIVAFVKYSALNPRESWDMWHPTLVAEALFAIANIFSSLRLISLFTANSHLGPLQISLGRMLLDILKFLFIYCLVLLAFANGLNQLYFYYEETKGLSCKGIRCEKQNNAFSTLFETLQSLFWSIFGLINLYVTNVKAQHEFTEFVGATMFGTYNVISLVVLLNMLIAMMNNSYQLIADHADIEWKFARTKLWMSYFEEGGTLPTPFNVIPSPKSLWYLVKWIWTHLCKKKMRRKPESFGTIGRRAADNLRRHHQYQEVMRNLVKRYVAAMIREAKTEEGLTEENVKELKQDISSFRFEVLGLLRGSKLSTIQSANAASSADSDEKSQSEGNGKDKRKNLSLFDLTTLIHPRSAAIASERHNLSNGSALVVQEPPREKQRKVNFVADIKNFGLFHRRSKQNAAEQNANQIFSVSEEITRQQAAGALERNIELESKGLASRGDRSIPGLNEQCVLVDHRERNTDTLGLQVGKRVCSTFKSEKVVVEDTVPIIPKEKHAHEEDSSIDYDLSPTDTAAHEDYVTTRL
# H4 = test: Luminescence Cell-Based Dose Response HTS to Identify Activators of 5'UTR Stem-Loop Driven Prion Protein mRNA Translation in H4 Neuroglioblastoma Cells. [Related pubchem assays: 1829 (Project Summary), 1814 (Primary HTS)]; assay type: functional; conditions: Homo sapiens
# cells = assay type: functional
# [18] = Luminescence Cell-Based Dose Response HTS to Identify Activators of Luciferase Translation or Activity in H4 […] Cells. [Related pubchem assays: 1829 (Project Summary), 1814 (Primary HTS)]; assay type: functional
# [19] = Vero E6 cell cytotoxicity, dose response, cytotoxicity control for non-replicating M. tuberculosis project, secondary assay (AID 492998); assay type: functional, VeroE6; conditions: Vero C1008
# [20] = Luminescence Cell-Based Dose Confirmation HTS to Identify Activators of 5'UTR Stem-Loop Driven Alpha-Synuclein mRNA Translation in H4 Neuroglioblastoma Cells. [Related pubchem assays: 1829 (Project Summary), 1814 (Primary HTS)]; assay type: functional
# [21] = THP-1 cell cytotoxicity, dose response, cytotoxicity control for non-replicating M. tuberculosis project (AID 489025); assay type: functional
# [22] = A cytotoxicity screen of small molecule inhibitors of the PhoP region in Salmonella typhi identified in the primary screen. [Related pubchem assays: 1850, 1864, 1985 ]; assay type: functional
# HEK293 = test: EBV LMP1 TES2 canonical NF-kB signalling blockers – cell-based, HEK293, luciferase, cherry-pick, dose response (AID 588343); assay type: functional; conditions: Homo sapiens
# [23] = molecular target: T4, High affinity choline transporter 1 (Homo sapiens, UniProt Q9GZV3); test: human choline transporter blockers, potency – cell-based, 5-point CRC, membrane potential dye, dose response (AID 504840); assay type: functional
# T4 sequence (Q9GZV3 whole entry): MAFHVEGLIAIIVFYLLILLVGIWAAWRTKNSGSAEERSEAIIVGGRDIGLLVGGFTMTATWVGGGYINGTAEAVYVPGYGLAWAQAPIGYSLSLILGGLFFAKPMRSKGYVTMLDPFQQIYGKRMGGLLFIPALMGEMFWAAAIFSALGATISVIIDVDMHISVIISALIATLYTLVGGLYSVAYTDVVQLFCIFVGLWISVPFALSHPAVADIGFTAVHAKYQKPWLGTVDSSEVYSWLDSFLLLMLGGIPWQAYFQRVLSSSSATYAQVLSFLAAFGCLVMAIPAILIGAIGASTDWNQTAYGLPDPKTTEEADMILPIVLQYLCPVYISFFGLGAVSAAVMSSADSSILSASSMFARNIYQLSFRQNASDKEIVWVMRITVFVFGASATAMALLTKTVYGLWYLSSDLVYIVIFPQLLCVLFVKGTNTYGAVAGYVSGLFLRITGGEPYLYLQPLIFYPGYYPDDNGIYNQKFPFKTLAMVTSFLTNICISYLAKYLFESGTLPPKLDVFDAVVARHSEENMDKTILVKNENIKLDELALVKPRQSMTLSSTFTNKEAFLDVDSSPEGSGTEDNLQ
# [24] = molecular target: Casein kinase I isoform alpha (Homo sapiens, UniProt P48729); assay type: functional
# Sequence of Casein kinase I isoform alpha (P48729 whole entry, canonical isoform): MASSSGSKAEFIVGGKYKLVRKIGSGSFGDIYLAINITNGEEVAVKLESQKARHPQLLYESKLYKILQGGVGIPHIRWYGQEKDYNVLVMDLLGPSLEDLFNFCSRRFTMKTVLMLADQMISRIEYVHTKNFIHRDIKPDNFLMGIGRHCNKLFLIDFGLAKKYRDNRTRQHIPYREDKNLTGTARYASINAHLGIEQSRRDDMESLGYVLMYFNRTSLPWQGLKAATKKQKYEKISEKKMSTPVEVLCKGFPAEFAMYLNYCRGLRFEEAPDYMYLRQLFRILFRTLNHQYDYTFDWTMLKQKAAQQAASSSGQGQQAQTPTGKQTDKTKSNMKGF
# Sequence of Melanocortin receptor 4 (P32245 whole entry): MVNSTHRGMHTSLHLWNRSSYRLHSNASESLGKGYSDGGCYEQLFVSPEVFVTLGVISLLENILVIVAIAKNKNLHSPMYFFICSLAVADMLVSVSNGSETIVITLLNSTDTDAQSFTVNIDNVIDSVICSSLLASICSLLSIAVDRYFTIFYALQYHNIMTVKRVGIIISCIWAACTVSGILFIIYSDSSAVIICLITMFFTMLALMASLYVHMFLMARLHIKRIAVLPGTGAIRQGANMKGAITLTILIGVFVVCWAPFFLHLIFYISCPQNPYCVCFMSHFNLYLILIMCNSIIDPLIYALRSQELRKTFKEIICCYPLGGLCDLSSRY
# Sequence of Luciferin 4-monooxygenase (P08659 whole entry): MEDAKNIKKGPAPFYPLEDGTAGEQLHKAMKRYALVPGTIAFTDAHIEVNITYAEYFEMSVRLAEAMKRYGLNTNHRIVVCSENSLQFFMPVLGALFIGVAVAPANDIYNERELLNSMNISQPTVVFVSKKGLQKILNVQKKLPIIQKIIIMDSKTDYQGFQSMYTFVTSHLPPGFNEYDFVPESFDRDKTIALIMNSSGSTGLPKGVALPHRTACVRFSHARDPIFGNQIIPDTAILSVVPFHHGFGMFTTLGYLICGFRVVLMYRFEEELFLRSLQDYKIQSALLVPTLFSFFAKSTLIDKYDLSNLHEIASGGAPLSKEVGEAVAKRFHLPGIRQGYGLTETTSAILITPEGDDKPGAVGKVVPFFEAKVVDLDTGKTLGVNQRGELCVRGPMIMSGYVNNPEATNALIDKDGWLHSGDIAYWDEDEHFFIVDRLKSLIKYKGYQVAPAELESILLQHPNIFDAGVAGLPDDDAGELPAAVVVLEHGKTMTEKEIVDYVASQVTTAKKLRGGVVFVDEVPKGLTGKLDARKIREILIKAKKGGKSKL
# Sequence of Beta-galactosidase (Q8VNN2 whole entry): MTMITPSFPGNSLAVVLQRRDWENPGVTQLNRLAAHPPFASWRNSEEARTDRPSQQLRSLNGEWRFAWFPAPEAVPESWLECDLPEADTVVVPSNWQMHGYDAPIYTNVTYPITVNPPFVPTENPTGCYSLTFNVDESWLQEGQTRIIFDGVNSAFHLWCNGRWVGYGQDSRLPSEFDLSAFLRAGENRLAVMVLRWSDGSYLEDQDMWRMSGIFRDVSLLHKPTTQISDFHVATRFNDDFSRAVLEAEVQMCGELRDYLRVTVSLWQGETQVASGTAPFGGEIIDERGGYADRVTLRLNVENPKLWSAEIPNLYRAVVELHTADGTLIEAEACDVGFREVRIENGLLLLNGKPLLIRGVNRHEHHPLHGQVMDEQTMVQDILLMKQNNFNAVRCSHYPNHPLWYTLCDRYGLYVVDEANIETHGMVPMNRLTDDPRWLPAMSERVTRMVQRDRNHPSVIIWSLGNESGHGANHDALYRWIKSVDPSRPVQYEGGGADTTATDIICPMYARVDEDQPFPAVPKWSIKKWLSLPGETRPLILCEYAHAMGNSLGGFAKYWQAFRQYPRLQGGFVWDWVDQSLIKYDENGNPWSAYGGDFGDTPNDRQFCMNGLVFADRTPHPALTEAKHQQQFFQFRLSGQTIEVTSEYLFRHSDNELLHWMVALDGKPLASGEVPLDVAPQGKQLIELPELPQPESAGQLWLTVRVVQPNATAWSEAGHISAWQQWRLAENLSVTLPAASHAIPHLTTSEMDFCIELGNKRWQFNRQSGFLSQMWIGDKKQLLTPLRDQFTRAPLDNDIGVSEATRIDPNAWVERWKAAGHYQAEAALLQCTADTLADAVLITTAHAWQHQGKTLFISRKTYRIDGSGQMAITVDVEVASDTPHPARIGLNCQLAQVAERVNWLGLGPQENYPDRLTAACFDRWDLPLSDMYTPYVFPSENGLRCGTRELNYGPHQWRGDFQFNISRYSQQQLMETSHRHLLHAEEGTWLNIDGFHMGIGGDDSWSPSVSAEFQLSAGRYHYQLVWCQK
smiles,measurement,setting,value
CC(C)Oc1ccccc1C1CC(=O)Nc2cc3c(cc21)OCCO3 (configuration not stated),EC50,[1],0.676 µM (active)
same,EC50,BJ [2],1.36 µM (active)
same,EC50,BJ [3],0.181 µM (active)
same,EC50,BJ [4],0.709 µM (active)
same,EC50,BJ [5],8.62 µM (active)
same,IC50,[6],> 80 µM (inactive)
N#C/C(=C\c1ccc(OC(=O)c2cccs2)cc1)c1nc2ccccc2[nH]1,EC50,[7],3.35 µM (active)
same,EC50,[8],76.2 µM (active)
same,IC50,[9],11.4 µM (active)
COc1cccc(CC2(CO)CCCN(Cc3[nH]c4ccc(C)cc4c3C)C2)c1 (configuration not stated),EC50,[10],> 112 µM (not active)
same,CC50,[11],39.3 µM (active)
same,EC50,Melanocortin receptor 4,> 89.2 µM (inactive)
same,EC50,[12],> 112 µM (not active)
COc1ccc([C@H]2CC(=O)C=C(c3ccc(OC)cc3OC)C2)cc1,IC50,[6],> 80 µM (inactive)
CC(C)C[C@@H](CO)N(Cc1ccccc1)S(=O)(=O)N(Cc1ccccc1)[C@H](CO)CC(C)C,AC50,[13],10.1 µM (active)
same,AC50,[14],21 µM (active)
same,AC50,[15],5.76 µM (active)
CCOc1ccc(C=NNc2ccc(S(=O)(=O)Nc3ccccc3C(=O)O)cc2[N+](=O)[O-])cc1OC,IC50,Beta-galactosidase,> 66.6 µM (inactive)
same,IC50,[9],3.51 µM (active)
CCCCCCCOc1ccc(OC(=O)c2ccncc2)cc1,IC50,[6],> 80 µM (inactive)
Cc1ccccc1C(=O)NNC(=S)NC(=O)c1cccs1,EC50,Streptococcus,18.2 µM (active)
same,CC50,Vero,> 25 µM (active)
same,EC50,[16],3.53 µM (active)
same,EC50,Streptokinase A,> 150 µM (not active)
same,EC50,[17],5.96 µM (active)
CC(=O)N1CCc2cc(Br)cc(S(=O)(=O)NCCCN(C)Cc3ccccc3)c21,EC50,[17],0.149 µM (active)
Cc1ccccc1NC(=O)CSc1nc2ccccc2c(=O)n1C,AC50,[13],7.64 µM (active)
same,AC50,[14],59.6 µM (active)
CCOC(=O)c1cnc(Nc2nc3ccccc3o2)nc1CSC(=S)N1CCCCC1,EC50,H4,> 120 µM (not active)
same,IC50,cells,2.4 µM (active)
same,EC50,[18],7.71 µM (active)
same,CC50,[19],9.21 µM (active)
same,EC50,[20],> 60 µM (not active)
same,CC50,[21],> 40 µM (active)
COc1cccc(C2c3c(-c4ccccc4)n[nH]c3C(=O)N2c2ccc(C(=O)O)cc2)c1 (configuration not stated),IC50,[9],5.63 µM (active)
Cc1cc(CSC(=N)N)c(CSC(=N)N)cc1C,EC50,[22],> 50 µM (active)
same,EC50,[17],2.11 µM (active)
CCOC(=O)C1(Cc2cccc(F)c2)CCN(Cc2cnc(C)s2)CC1,EC50,[17],0.944 µM (active)
CC(=O)Nc1cc(-c2ccccc2)cn2c(-c3ccc(F)c(Cl)c3)cnc12,EC50,Melanocortin receptor 4,> 89.2 µM (inactive)
C[C@@H]1CN([C@@H](C)CO)S(=O)(=O)c2ccc(/C=C/c3ccccc3)cc2O[C@@H]1CN(C)Cc1ccc(C(=O)O)cc1,AC50,HEK293,35.4 µM (active)
CC1(C)CC(=O)C=C(Nc2cccc(Cl)c2Cl)C1,IC50,[23],3.16 µM (active)
N#Cc1cnc(Cl)nc1N,Ki,[24],100 µM (active)
